The values below come from patent US7951956B2, “Benzoimidazole compound capable of inhibiting prostaglandin D synthetase” (Taiho Pharmaceuticals Co., Ltd., priority 2005, dated 2011).

Data set [1] has as its system antigen-induced nasal congestion. Put plainly: Ameliorating activity for antigen-induced nasal congestion in guinea pig (Experiment 3). Format: in vivo, Std:Hartley guinea pigs. Conditions: for AUC3-7 hr (nRaw increase %): 3 to 7 hours after induction. Here is the method: A physiological saline solution containing 1 mg/mL of ovalbumin was subcutaneously injected into the backs of 5-week-old male Std:Hartley guinea pigs in an amount of 1 mL/body for active sensitization (primary sensitization). One week and two weeks after primary sensitization, 20 μL each of a physiological saline solution containing 10 mg/mL of ovalbumin was instilled into the nasal cavities using a micropipette (sensitization by nasal administration). Three weeks after primary sensitization, 10 μL each of a physiological saline solution containing 20 mg/mL of ovalbumin was instilled into the nasal cavities using a micropipette to induce a rhinitis reaction.
Before, and 10 minutes and 2, 3, 4, 5, 6 and 7 hours after nasal instillation of ovalbumin, the nasal airway resistance per 100 breaths was determined using a comprehensive respiratory function analysis system (“Pulmos-I”, a product of M.I.P.S. Co., Ltd.), and the average at each measurement time was calculated and expressed as nRaw. The increase % of nRaw was calculated according to the following formula. Increase(%)of nRaw at each measurement time=(nRaw at each measurement time−nRaw before induction)÷nRaw before induction×100
Nasal congestion was evaluated by measuring the area under the curve of nRaw increase % during the period of 3 to 7 hours after induction (AUC3-7 hr). “I3-7 hr” refers to the increase of nRaw during the period of 3 to 7 hours after induction. AUC3-7hr=½(I3hr+2×I4hr+2×I5hr+2×I6hr+I7hr)
To confirm the effects on nasal congestion by inhibition of PGD2 production, Compound 15 was selected as a representative compound and orally administered once a day for 15 consecutive days from the day of nasal sensitization performed 1 week after primary sensitization to the day of induction performed 3 weeks after primary sensitization. On the nasal sensitization days (1 week and 2 weeks after primary sensitization) and the induction day, compound 15 was orally administered 1 hour before intranasal instillation of ovalbumin.

For data set [2], the system named is PGD2 amount in bronchoalveolar lavage fluid. Put plainly: Inhibitory activity for prostaglandin D2 production into bronchoalveolar lavage fluid in rats (Experiment 2). Conditions: 10 mg/kg orally two hours before antigen inhalation; lavage fluid one hour after ovalbumin inhalation; sensitized rats. It is filed as in vivo, Brawn Norway rats. Here is the method:
A physiological saline solution containing 1 mg of ovalbumin and 4 mg of alum was subcutaneously injected into the backs of 7-week-old male Brawn Norway rats in an amount of 1 mL/body, and 0.06 mg of killed pertussis bacteria were intraperitoneally injected into each rat to perform active sensitization. Fourteen days after sensitization, the rats inhaled 2% ovalbumin for 10 minutes. One hour after inhalation, bronchoalveolar lavage fluid was collected. The amount of PGD2 in the bronchoalveolar lavage fluid was determined using an EIA kit. Two hours before antigen inhalation, a test compound (10 mg/kg) was orally administered.

Data set [3] has as its target human hematopoietic synthase (Homo sapiens, UniProt O60760). Put plainly: Hematopoietic synthase inhibitory activity (Experiment 1). It is filed as biochemical. The note with it: [14C] prostaglandin H2 10 μM, preincubated at 25° C. for 5 minutes, 1 minute reaction; read-out: Concentration of Pharmaceutical Compound Required to Inhibit 50% of Hematopoietic Synthase. As to the method: Experiment 1 was carried out according to the method of Urade, Y. et al. (J. Biol. Chem. 262, 3820-3825, (1987)). More specifically, the reaction mixture (49 μL); 100 mM Tris-HCl (pH 8.0), 1 mM reduced glutathione, 0.1 mg/mL γ-globulin, and human hematopoietic synthase (quantum sufficient), and a test compound (final concentration: 0.01-100 μM) were preincubated at 25° C. for 5 minutes. In place of the test compound, a DMSO solution (final concentration: 1%) was used in the solvent control group (Control Group). Subsequently, 1 μL of [^14C] prostaglandin H2 (final concentration: 10 μM) was added to start the reaction. One minute after the start of the reaction, 250 μL of a reaction stopper solution (diethylether/methanol/1M citric acid (30/4/1) cooled to −20° C. was added to stop the reaction.
Thereafter, 50 μL of the upper layer portion (organic solvent phase) was applied to a TLC plate and developed at −20° C. for 45 minutes (developer: diethylether/methanol/acetic acid (capacity ratio=90/2/1)). After drying the plate, the plate was exposed to an imaging plate for 1 to 24 hours, and the radioactivity corresponding to prostaglandin D2 was analyzed using an image analyzer (product of FUJIFILM Corporation). The area (%) occupied by the prostaglandin D2 band per lane was calculated, and the concentration of the test compound required to inhibit 50% of the hematopoietic synthase (IC50 value) was calculated by comparison with the Control group in each experiment.

Bounds are passed on as bounds.

In general, melting point refers to the temperature of the solid-liquid transition.

Sequence of human hematopoietic synthase (O60760 whole entry): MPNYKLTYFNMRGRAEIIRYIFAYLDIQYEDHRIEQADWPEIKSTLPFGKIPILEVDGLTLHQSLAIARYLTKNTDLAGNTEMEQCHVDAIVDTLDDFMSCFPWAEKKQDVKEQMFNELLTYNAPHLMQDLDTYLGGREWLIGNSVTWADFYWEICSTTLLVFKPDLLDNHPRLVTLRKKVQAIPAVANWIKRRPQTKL

As to `O=C(Nc1cccc2c(=O)cc(-c3nnn[nH]3)oc12)c1ccc(OCCCCc2ccccc2)cc1` [Pranlukast, reference compound], in data set [1] (30 mg/kg orally), the “Inhibition (%) of nasal congestion (AUC3-7 hr)” value (from here on “Inhibition (%) … (AUC3-7 hr)”) amounted to 81.5% and the “AUC3-7 hr (nRaw increase %)” value is on record as 126.3 ± 41.7^$$ % · hr.
On to `Cc1[nH]c(C(=O)N2CCC=N2)c(C)c1-c1nc2cc(C(=O)c3ccccc3)ccc2[nH]1` [Compound 42, ((4-(5-Benzoylbenzimidazol-2-yl)-3,5-dimethylpyrrol-2-yl)-carbonyl)pyrazoline], for which the “Inhibition (%) of the PGD2 Amount in Bronchoalveolar Lavage Fluid” value (shortened to “Inhibition (%) of the PGD2 Amount”) in data set [2] is recorded as 88%. The IC50 in data set [3] was 63 nM.
`CON(C)C(=O)c1[nH]c(C)c(-c2nc3cc(C(=O)c4ccccc4)ccc3[nH]2)c1C` [Compound 15, (N-Methoxy-N-methyl)-4-(5-benzoylbenzimidazol-2-yl)-3,5-dimethylpyrrole-2-carboxamide] returned a melting point of 127 to 132 °C. In data set [2], the “Inhibition (%) of the PGD2 Amount” value is listed as >72%. Besides, in data set [3], the IC50 turned out to be 256 nM. For the same molecule, in data set [1] (3 mg/kg orally), the “Inhibition (%) … (AUC3-7 hr)” value was 60.8% and the “AUC3-7 hr (nRaw increase %)” value was found to be 273.9 ± 69.1 % · hr. Further, in data set [1] (10 mg/kg orally), the “Inhibition (%) … (AUC3-7 hr)” value worked out at 76.5% and the “AUC3-7 hr (nRaw increase %)” value is 153.5 ± 27.1 % · hr. In data set [1] (30 mg/kg orally), the “Inhibition (%) … (AUC3-7 hr)” value was determined as 92.8% and the “AUC3-7 hr (nRaw increase %)” value stood at 65.7 ± 28.9 % · hr.
In turn, `Cc1[nH]c(C#N)c(C)c1-c1nc2cc(C(=O)c3ccccc3)ccc2[nH]1` [Compound 13, 2-(2-Cyano-3,5-dimethyl-pyrrol-4-yl)-5-benzoylbenzimidazole] displayed a melting point of 159 to 163 °C. In addition, the “Inhibition (%) of the PGD2 Amount” value in data set [2] is 48%. In data set [3], the IC50 is 540 nM.
With `O=C(c1ccccc1)c1ccc2[nH]c(-c3c[nH]c(C(=O)O)c3)nc2c1` [Compound 5, 4-(5-Benzoylbenzimidazol-2-yl)-pyrrole-2-carboxylic acid], the melting point is 239 to 241 °C. Moreover, the IC50 in data set [3] came out at 1450 nM.
Take `Cc1[nH]c(C(=O)N2CCOCC2)c(C)c1-c1nc2cc(C(=O)c3ccccc3)ccc2[nH]1` [Compound 40, ((4-(5-benzoylbenzimidazol-2-yl)-3,5-dimethylpyrrol-2-yl)-carbonyl)morpholine]: the “Inhibition (%) of the PGD2 Amount” value in data set [2] came out at 65%. For the same molecule, the IC50 in data set [3] is 592 nM.
As to `Cc1oc(C(=O)N2CCCC2)c(C)c1-c1nc2cc(C(=O)c3ccccc3)ccc2[nH]1` [Compound 3, (4-(5-Benzoylbenzimidazol-2-yl)-3,5-dimethyl-2-furanylcarbonyl)pyrrolidine], the “Inhibition (%) of the PGD2 Amount” value in data set [2] is on record as 36%. Moreover, the IC50 in data set [3] was 178 nM.
As for `O=C(O)CCn1c2c(c3ccccc31)C[C@H](NS(=O)(=O)c1ccc(F)cc1)CC2` [Ramatroban, reference compound], in data set [1] (30 mg/kg orally), the “Inhibition (%) … (AUC3-7 hr)” value worked out at 70.9% and the “AUC3-7 hr (nRaw increase %)” value is recorded as 183.4 ± 29.3^$$ % · hr.
Turning to `O=C(c1ccccc1)c1ccc2[nH]c(-c3c[nH]c(C(=O)N4CCCC4)c3)nc2c1` [Compound 6, ((4-(5-Benzoylbenzimidazol-2-yl)-pyrrol-2-yl)-carbonyl)pyrrolidine], the melting point lay in the range of 160 to 162 °C. In data set [3], the IC50 worked out at 1740 nM.
Molecule `Cc1oc(C(N)=O)c(C)c1-c1nc2cc(C(=O)c3ccccc3)ccc2[nH]1` [Compound 2, 4-(5-Benzoylbenzimidazol-2-yl)-3,5-dimethylfuran-2-carboxamide] displayed a melting point of 143 to 146 °C. The IC50 in data set [3] amounted to 274 nM.
Regarding `Cc1[nH]c(C(=O)O)c(C)c1-c1nc2cc(Oc3ccccc3)ccc2[nH]1` [Compound 69, 4-(5-Phenoxybenzimidazole-2-yl)-3,5-dimethylpyrrole-2-carboxylic acid], the melting point was 167 to 172 °C (dec.). For the same molecule, in data set [3], the IC50 was 491 nM.
On the same counts, the results for `Cc1[nH]c(C(=O)N2CCC(C(=O)O)CC2)c(C)c1-c1nc2cc(C(=O)c3ccccc3)ccc2[nH]1` [Compound 45, ((4-(5-Benzoylbenzimidazol-2-yl)-3,5-dimethylpyrrol-2-yl)-carbonyl)piperidine-4-carboxylic acid] are 267 to 271 °C and 643 nM.
In the case of `CCOC(=O)c1c(C)[nH]c(-c2nc3cc(C(=O)c4ccccc4)ccc3[nH]2)c1C` [Compound 53, 5-(5-Benzoylbenzimidazole-2-yl)-2,4-dimethylpyrrole-3-carboxylic acid ethyl ester], the melting point fell in the range of 185 to 187 °C. Further, the IC50 in data set [3] amounted to 3080 nM.
With `Cc1[nH]c(C(=O)NCO)c(C)c1-c1nc2cc(C(=O)c3ccccc3)ccc2[nH]1` [Compound 67, (N-Hydroxymethyl)-4-(5-benzoylbenzimidazol-2-yl)-3,5-dimethylpyrrole-2-carboxamide], the melting point fell in the range of 196 to 210 °C. Besides, the IC50 in data set [3] worked out at 109 nM.
On the same counts, the results for `Cc1[nH]c(C(=O)N2CCCC2)c(C)c1-c1nc2cc(Oc3ccccc3)ccc2[nH]1` [Compound 70, ((4-(5-Phenoxybenzimidazole-2-yl)-3,5-dimethylpyrrol-2-yl)-2-carbonyl)pyrrolidine] are 251 to 254 °C and 614 nM.
